US8859021B2, “Skin appearance through gene manipulation” (Sytheon, priority 2007, dated 2014)

Legend:
[1] = test system: EpiDerm tissues; conditions: retinol 10 μg/ml, Sytenol A 5 μg/ml, 2 days
[2] = test system: skin; conditions: in vivo

## C=C[C@@](C)(/C=C/c1ccc(O)cc1)CCC=C(C)C [Sytenol A, bakuchiol]
[1]
  Laminins up-regulation by Sytenol A relative to retinol: almost three-fold more than retinol
  Lecithin retinol acyltransferase up-regulation by Sytenol A relative to retinol: almost seven-fold higher than by retinol
[1]; vs 0.1% DMSO control
  Fold Change, ACTN1 Alpha-actinin-1 (Alpha-actinin cytoskeletal isoform) (Table 8): +2.70 fold
  Fold Change, ACTN1 Alpha-actinin-1 (Alpha-actinin cytoskeletal isoform) (Table 9): +2.70 fold
  Fold Change, ACTN4 Alpha-actinin-4(F-actin cross-linking protein) (Table 8): +3.13 fold
  Fold Change, ACTN4 Alpha-actinin-4(F-actin cross-linking protein) (Table 9): +3.13 fold
  Fold Change, AFAP1L2 Actin filament-associated protein 1-like 2: +3.84 fold
  Fold Change, C16orf30 Claudin-like protein 24: No effect
  Fold Change, CDH1 Epithelia-cadherin precursor (E-cadherin) (Table 7): +21.56 fold
  Fold Change, CDH1 Epithelial-cadherin precursor (E-cadherin) E-Cad/CTF1 (Table 9): +21.56 fold
  Fold Change, CDH3 Cadherin-3-precursor (P-cadherin): +7.47 fold
  Fold Change, CDH19 Cadherin-19-precursor: No effect
  Fold Change, CDH24 Cadherin-24-precursor: +2.28 fold
  Fold Change, CDK5R1 Tau protein kinase II 23 kDa subunit (Cyclin-dependent kinase 5 activator 1 precursor (CDK5 activator 1)): +2.66 fold
  Fold Change, CLDN4 Claudin-4 (Clostridium perfringens enterotoxin receptor) (CPE-R): +5.92 fold
  Fold Change, CLDN5 Claudin-5 (Transmembrane protein deleted in VCFS): No effect
  Fold Change, CLDN6 Claudin-6 (Skullin 2): No effect
  Fold Change, CLDN7 Claudin-7 (CLDN-7): +46.09 fold
  Fold Change, CLDN11 Claudin-11 (Oligodendrocyte-specific protein): −4.01 fold
  Fold Change, CLDN12 Claudin-12: +2.00 fold
  Fold Change, CLDN16 Claudin-16 (Paracellin-1) (PCLN-1): +11.62 fold
  Fold Change, COL1A2 Collagen alpha-2 (I) chain precursor (Alpa-2 type I collagen): +1.85 fold
  Fold Change, COL3A1 Collagen alpha-1 (III) chain precursor: No effect
  Fold Change, COL9A2 Collagen alpha-2 (IX) chain precursor: +6.67 fold
  Fold Change, COL9A3 Collagen alpha-3 (IX) chain precursor: +5.76 fold
  Fold Change, CTHRC1 Collagen triple helix repeat-containing protein 1 precursor: −10.17 fold
  Fold Change, CTNNAL1 Alpha-catenin-related protein (ACRP) (Table 8): No effect
  Fold Change, CTNNAL1 Alpha-catenin-related protein (ACRP) (Table 9): No effect
  Fold Change, CYP26B1 Cytochrome P450 26B1 (Retinoic acid-metabolizing cytochrome): −1.74 fold
  Fold Change, Connective tissue growth factor precursor (Hypertrophic chondrocyte-specific protein 24): −2.56 fold
  Fold Change, DHRS9 NADP-dependent retinol dehydrogenase/reductase: +11.56 fold
  Fold Change, DSC1 Desmocollin-1-precursor (DG2/DG3): −5.96 fold
  Fold Change, DSC2 Desmocollin-2-precursor (Desmocollin-3): +4.68 fold
  Fold Change, DSG1 Desmoglein-1-precursor (DG1): −2.26 fold
  Fold Change, DSG2 Desmoglein-2-precursor: +20.15 fold
  Fold Change, DSG3 Desmoglein-3-precursor: +4.25 fold
  Fold Change, DSG4 Desmoglein-4-precursor: +10.59 fold
  Fold Change, ECM1 Extracellular matrix protein 1 precursor: +2.00 fold
  Fold Change, ECM2 Extracellular matrix protein 2 precursor: +4.10 fold
  Fold Change, ELA3B Elastase-3B precursor (Elastase IIIB): +6.58 fold
  Fold Change, F11R Junctional adhesion molecule 1 (JAM-1): +8.92 fold
  Fold Change, FLNB Actin-binding-like protein: +5.87 fold
  Fold Change, FLRT2 Fibronectin-like-domain-containing leucine-rich transmembrane protein 2: No effect
  Fold Change, FLRT3 Fibronectin-like-domain-containing leucine-rich transmembrane protein 3: +6.18 fold
  Fold Change, FNDC7 Fibronectin type III domain containing 7: +9.14 fold
  Fold Change, Fibroblast growth factor 9 (HBGF-9): −2.34 fold
  Fold Change, Fibroblast growth factor 23 precursor (FGF-23) (Tumor-derived hypophosphatemia-inducing factor): −3.01 fold
  Fold Change, Fibroblast growth factor receptor 2 precursor (FGFR-2): +8.93 fold
  Fold Change, Fibroblast growth factor-binding protein 1 precursor (FGF-BP1): +2.69 fold
  Fold Change, GSN Gelsolin precursor (Actin-depolymerizing factor) (ADF): +3.19 fold
  Fold Change, HAS2 Hyaluronan synthase 2: No effect
  Fold Change, HAS3 Hyaluronan synthase 3: +19.29 fold
  Fold Change, HS3ST1 Heparan sulfate 3-O-sulfotransferase 1 (Table 6): +24.91 fold
  Fold Change, HS6ST1 Heparan sulfate 6-O-sulfotransferase 1: +1.79 fold
  Fold Change, HYAL1 Hyaluronidase-1-precursor: No effect
  Fold Change, Heparin-binding EGF-like growth factor precursor (HB-EGF): +5.09 fold
  Fold Change, IGSF1 Immunoglobulin superfamily, member 1 isoform 1: +2.81 fold
  Fold Change, IGSF3 Immunoglobulin superfamily, member 3 isoform 2: +3.39 fold
  Fold Change, ITG5 Integrin beta-5 precursor (Table 7): No effect
  Fold Change, ITGA6 Integrin alpha-6 precursor: +3.57 fold
  Fold Change, ITGB2 Integrin beta-2-precursor: −7.67 fold
  Fold Change, ITGB4 Integrin beta-4 precursor (Table 7): +7.98 fold
  Fold Change, ITGB6 Integrin beta-6-precursor (Table 7): +7.71 fold
  Fold Change, ITGB8 Integrin beta-8 precursor (Table 3): +3.90 fold
  Fold Change, ITGB8 Integrin beta-8 precursor (Table 7): +3.90 fold
  Fold Change, Insulin growth factor-like family member 3 precursor (IGBP-3): −8.67 fold
  Fold Change, Insulin growth factor-like family member 4 precursor (IGBP-4): +2.41 fold
  Fold Change, Insulin-like growth factor-binding protein 6 precursor (IGBP-6): +4.03 fold
  Fold Change, JUP Catenin gamma (Junction plakoglobin) (Table 8): +3.83 fold
  Fold Change, JUP Catenin gamma (Table 9): +3.83 fold
  Fold Change, KIF1C Kinesin-like protein KIF1C: +2.03 fold
  Fold Change, KIF2A Kinesin-like protein KIF2A: No effect
  Fold Change, KIF4A Chromosome-associated kinesin KIF4A: +2.15 fold
  Fold Change, KIF13A Kinsein-like protein KIF13A: No effect
  Fold Change, KIF13B Kinsein-like protein KIF13B: +3.53 fold
  Fold Change, KIF17 Kinesin-like protein KIF17: +2.44 fold
  Fold Change, KIF26A Kinesin family member 26A: No effect
  Fold Change, KIFC2 Kinesin-like protein KIFC2: No effect
  Fold Change, KRT2 Keratin-2; Cytokeratin-2e (CK 2e): −3.53 fold
  Fold Change, KRT5 Keratin-5, Cytokeratin-5 (CK-5): +2.81 fold
  Fold Change, KRT7 Keratin-7; Cytokeratin-7 (CK-7): +13.75 fold
  Fold Change, KRT13 Keratin-13; Cytokeratin-13 (CK-13): +16.34 fold
  Fold Change, KRT15 Keratin-15; Cytokeratin-15 (CK-15): +11.29 fold
  Fold Change, KRT19 Keratin-19; Cytokeratin-19 (CK-19): +20.67 fold
  Fold Change, LAMA3 Laminin subunit alpha-3 precursor (Epiligrin 170 kDa subunit): +11.03 fold
  Fold Change, LAMC2 Laminin subunit gamma-2 precursor (Laminin B2t chain): +7.84 fold
  Fold Change, LRAT Lecithin retinol acyltransferase: +82.23 fold
  Fold Change, LRRC49 Tubulin polyglutamylase complex subunit 4 (PGs4): −3.47 fold
  Fold Change, MC1R, TUBB3 Tubulin beta-3-chain (Tubulin beta-III): +3.23 fold
  Fold Change, MMP9 Matrix metalloprotease-9-precursor: +12.61 fold
  Fold Change, MMP15 Matrix metalloprotease-15 precursor: +4.19 fold
  Fold Change, MMP21 Matrix metalloprotease-21 precursor: −7.89 fold
  Fold Change, MMP23A, MMP23B Matrix metalloprotease-23: −8.83 fold
  Fold Change, MMP26 Matrix metalloprotease-26-precursor (MMP-26): +2.91 fold
  Fold Change, MMP28 Matrix metalloprotease-28-precursor: +15.91 fold
  Fold Change, MYH14 Myosin-14: +5.72 fold
  Fold Change, MYL2 Myosin regulatory light chain 2: −2.50 fold
  Fold Change, MYO1F Myosin-lf (Myosin-le): +3.44 fold
  Fold Change, MYO6 Myosin-VI: +2.38 fold
  Fold Change, Mast/stem cell growth factor receptor precursor (SCFR) (Proto-oncogene tyrosine-protein kinase kit (c-kit)): −2.31 fold
  Fold Change, NDST4 N-heparan sulfate sulfotransferase 4: +4.43 fold
  Fold Change, NEIL2 DNA glycosylase/AP lyase Neil2: +4.17 fold
  Fold Change, NF-kappa-B-activating protein: −2.32 fold
  Fold Change, NGRN, TTLL13 Tubulin tyrosine ligase-like family, member 13: +12.65 fold
  Fold Change, NT5C1B, RDH14 Retinol dehydrogenase 14 (Alcohol dehydrogenase PAN20): −3.57 fold
  Fold Change, Nuclear factor Kappa B p105 unit (NF-kappa-B) (DNA-binding factor KBF 1): −2.01 fold
  Fold Change, PARP2 Poly (ADP-ribose) polymerase 2: +1.46 fold
  Fold Change, PARP9 Poly (ADP-ribose) polymerase 9: +7.74 fold
  Fold Change, PARP12 Poly (ADP-ribose) polymerase 12: +6.05 fold
  Fold Change, PARP15 Poly (ADP-ribose) polymerase 15: No effect
  Fold Change, PCDH11X Procadherin-11: +10.15 fold
  Fold Change, PCDH18 Procadherin-18-precursor: No effect
  Fold Change, PCDH19 Procadherin-19-precursor: No effect
  Fold Change, PCDHB1 Procadherin-beta-1-precursor: +2.00 fold
  Fold Change, PCDHB2 Procadherin-beta-2-precursor: +18.74 fold
  Fold Change, PCDHB3 Procadherin-beta-3-precursor: No effect
  Fold Change, PCDHB4 Procadherin-beta-4-precursor: −7.81 fold
  Fold Change, PFN4 Profilin-4 (Profilin IV): No effect
  Fold Change, PI3 Elastase-specific inhibitor: +2.72 fold
  Fold Change, Protein Kinase B (RAC-alpha serine/threonine-protein kinase) (RAC-PK-alpha): −3.47 fold
  Fold Change, RARRES1 Retinoic acid receptor responder protein 1: +12.87 fold
  Fold Change, RBP1 Cellular Retinol-binding protein-I: +4.17 fold
  Fold Change, RBP2 Cellular Retinol-binding protein-II: +4.12 fold
  Fold Change, RBP7 Cellular retinoic acid-binding protein 4: +3.09 fold
  Fold Change, RETSAT All-trans-retinol 13,14-reductase precursor: −2.84 fold
  Fold Change, SELE E-selection precursor (Endothelial leukocyte adhesion molecule 1) (ELAM-1): No effect
  Fold Change, SERPINB1 Leukocyte elastase inhibitor: +6.09 fold
  Fold Change, SIR2-like protein1/NAD-dependent deacetylase sirtuin-1 (hSIRT1): −1.54 fold
  Fold Change, SIR2-like protein2/NAD-dependent deacetylase sirtuin-2: +1.52 fold
  Fold Change, SIR2-like protein7/NAD-dependent deacetylase sirtuin-7: +2.47 fold
  Fold Change, SRRM1 Serine/arginine repetitive matrix protein 1 (SR-related nuclear matrix protein 160 kDa) (SRm160): +3.13 fold
  Fold Change, TBCEL Tubulin-specific chaperone cofactor E-like protein (EL): No effect
  Fold Change, TTBK1 Tau-tubulin kinase 1: No effect
  Fold Change, TTLL1 Tubulin polyglutamylase complex subunit 3 (PGs3): +2.07 fold
  Fold Change, TUBB2B Tubulin beta-2B chain: −3.31 fold
  Laminins gene regulation (in words): up-regulate
[2]
  Primary skin irritation (edema or erythema): NON-PRIMARY IRRITANT
